Data reported in paper PMC10376326, “Novel Acylselenourea Derivatives: Dual Molecules with Anticancer and Radical Scavenging Activity” (Antioxidants, 2023).

How the values were obtained:
[1] = test system: HTB-54 (lung) cancer cell line; test: MTT cell viability assay, HTB-54; format: cell-based, human; conditions: for activity at 10 µM / activity at 50 µM: Homo sapiens, HTB-54, 48 h; for activity at 10 µM: read-out: Cell growth %, HTB-54, 10 µM, 48 h, MTT; for activity at 50 µM: read-out: Cell growth %, HTB-54, 50 µM, 48 h, MTT
[2] = test system: MDA-MB-231 (breast) cancer cell line; test: MTT cell viability assay, MDA-MB-231; format: cell-based, human; conditions: for activity at 10 µM / activity at 50 µM: Homo sapiens, MDA-MB-231, 48 h; for activity at 10 µM: read-out: Cell growth %, MDA-MB-231, 10 µM, 48 h, MTT; for activity at 50 µM: read-out: Cell growth %, MDA-MB-231, 50 µM, 48 h, MTT
Method in brief: (§1)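 MDA-MB-231, HTB-54 and DU-145 grown in RPMI 1640, HT-29 in McCoy's 5A (10% FBS). Output is % cell growth; IC50 determined; ≥3 experiments in quadruplicate.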

[3] = test system: non-malignant BEAS-2B lung cell line; parameters: method as in doi:10.30918/IRJMMS.72.19.022; conditions: cited from earlier work
[4] = test system: HTB-54 (lung) cancer cell line; parameters: method as in PMID 22397496; conditions: cited from earlier work
[5] = test system: DU-145 (prostate) cancer cell line; test: MTT cell viability assay, DU-145; format: cell-based, human; conditions: for activity at 10 µM / activity at 50 µM: Homo sapiens, DU-145, 48 h; for activity at 10 µM: read-out: Cell growth %, DU-145, 10 µM, 48 h, MTT; for activity at 50 µM: read-out: Cell growth %, DU-145, 50 µM, 48 h, MTT
Method in brief: as §1

[6] = test system: HT-29 (colon) cancer cell line; test: MTT cell viability assay, HT-29; format: cell-based; conditions: Homo sapiens, HT-29, 48 h, read-out: Cell growth %; for activity at 10 µM: HT-29, 10 µM; for activity at 50 µM: HT-29, 50 µM
Method in brief: as §1

[7] = test system: MDA-MB-231, HT-29, HTB-54 and DU-145 cancer cell lines; test: MTT cell viability assay, statements over the panel of cancer cell lines; format: cell-based, human; conditions: 10 µM, over the four cancer cell lines
Experimental: Cell lines were purchased from the American Type Culture Collection (ATCC). Cell lines MDA-MB-231, HTB-54, DU-145, and BEAS-2B were cultured in RPMI 1640 medium (Gibco, Thermo Fisher Scientific, Gaithersburg, MD, USA) supplemented with 10% fetal bovine serum (FBS; Gibco), 100 units/mL penicillin, and […] streptomycin (Gibco). HT-29 cell line was grown in McCoy’s 5A (Gibco), 10% FBS, 100 units/mL penicillin, and 100 μg/mL streptomycin. Cells were maintained at 37 °C and 5% CO2. The culture medium was changed every three days.
The cell viability of each compound was measured by MTT colorimetric assay. Each compound was dissolved in DMSO at a concentration of 0.01 M. Each compound was tested at two different concentrations (10 and 50 µM) in MDA-MB-231 (breast), HTB-54 (lung), DU-145 (prostate), and HT-29 (colon) human cancer cell lines. Serial dilutions were prepared with supplemented culture medium. […] IC50 and selectivity indexes (SI) were determined.
Briefly, 1 × 10^4 tumor cells per well were grown in 96-well plates for 24 h. Then, these cells were incubated for 48 h with either DMSO (control) or a different concentration of each of the tested compounds. The cell viability was determined by adding 20 μL of MTT two hours and a half before the termination point. After this time, the culture medium was removed. The resulting formazan crystals were dissolved in 50 μL of DMSO, and the absorbance was measured at 570 nm. Results are expressed as % cell growth. The data were obtained from at least three independent experiments performed in quadruplicate.

[8] = DPPH radical scavenging assay; format: biochemical
Method in brief: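 Acylselenoureas at 0.003 and 0.03 mg/mL (final dilutions from DMSO stock, via methanol) mixed with DPPH• prepared at 0.04 mg/mL in methanol. Absorbance decrease at 517 nm followed 0–120 min; % scavenging calculated relative to negative control, triplicates.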

N.N.[Cl][Pt][Cl] [Cisplatin, reference compound]
SI ([1]; IC50 (BEAS-2B)/IC50 (HTB-54)): 0.63 | IC50 ([2]; Breast, MTT, 48 h, read-out: IC50 MDA-MB-231): 5.5 ± 0.5 µM | IC50 [3]: 8.63 µM | IC50 [4]: 13.7 µM | IC50 ([5]; Prostate, MTT, 48 h, read-out: IC50 DU-145): 6.2 ± 0.1 µM

C=CCNC(=[Se])NC(=O)/C=C/c1ccco1 [Compound 3.II, (E)-N-(allylcarbamoselenoyl)-3-(furan-2-yl)acrylamide]
activity at 10 µM [1]: 73.1 ± 3% | activity at 50 µM [1]: 35.4 ± 8.9% | activity at 10 µM [2]: 79.6 ± 7.7% | activity at 50 µM [2]: 14.1 ± 5.8% | activity at 10 µM [6]: 63.3 ± 15% | activity at 50 µM [6]: 33.2 ± 6.1% | melting point: 104 to 105 °C | cell growth % [7]: 54.8–95.0% | activity at 10 µM [5]: 93.6 ± 14.7% | activity at 50 µM [5]: 10.4 ± 4.1% | inhibition ([8]; 0.003 mg/mL, 0 min): 0% | inhibition ([8]; 0.003 mg/mL, 5 min): 0% | inhibition ([8]; 0.003 mg/mL, 15 min): 0% | inhibition ([8]; 0.003 mg/mL, 30 min): 0.5 ± 2.9% | inhibition ([8]; 0.003 mg/mL, 60 min): 1.7 ± 2.9% | inhibition ([8]; 0.003 mg/mL, 90 min): 2.5 ± 2.9% | inhibition ([8]; 0.003 mg/mL, 120 min): 3.3 ± 2.9% | inhibition ([8]; 0.03 mg/mL, 0 min): 0.7 ± 2.7% | inhibition ([8]; 0.03 mg/mL, 5 min): 5.2 ± 1.8% | inhibition ([8]; 0.03 mg/mL, 15 min): 9 ± 1.6% | inhibition ([8]; 0.03 mg/mL, 30 min): 14.3 ± 1.1% | inhibition ([8]; 0.03 mg/mL, 60 min): 23.7 ± 0.8% | inhibition ([8]; 0.03 mg/mL, 90 min): 31.7 ± 0.1% | inhibition ([8]; 0.03 mg/mL, 120 min): 39.6 ± 0.1%

C#CCNC(=[Se])NC(=O)/C=C/c1ccco1 [Compound 3.III, (E)-3-(furan-2-yl)-N-(prop-2-in-1-ylcarbamoselenoyl)acrylamide]
activity at 10 µM [1]: 74.2 ± 4% | activity at 50 µM [1]: 35.3 ± 5.7% | activity at 10 µM [2]: 66.8 ± 7.2% | activity at 50 µM [2]: 20.1 ± 8% | activity at 50 µM [6]: 51.4 ± 6% | melting point: 118 to 119 °C | activity at 10 µM [5]: 86.5 ± 9.3% | activity at 50 µM [5]: 24.7 ± 4.9% | inhibition ([8]; 0.003 mg/mL, 0 min): 0.9 ± 1.9% | inhibition ([8]; 0.003 mg/mL, 5 min): 1.2 ± 1.8% | inhibition ([8]; 0.003 mg/mL, 15 min): 1.9 ± 1.7% | inhibition ([8]; 0.003 mg/mL, 30 min): 2.7 ± 1.7% | inhibition ([8]; 0.003 mg/mL, 60 min): 4.1 ± 1.7% | inhibition ([8]; 0.003 mg/mL, 90 min): 5.3 ± 1.7% | inhibition ([8]; 0.003 mg/mL, 120 min): 6.2 ± 1.6% | inhibition ([8]; 0.03 mg/mL, 0 min): 2.6 ± 1.3% | inhibition ([8]; 0.03 mg/mL, 5 min): 6.3 ± 1.1% | inhibition ([8]; 0.03 mg/mL, 15 min): 10.9 ± 0.9% | inhibition ([8]; 0.03 mg/mL, 30 min): 17.5 ± 0.4% | inhibition ([8]; 0.03 mg/mL, 60 min): 28.4 ± 0.4% | inhibition ([8]; 0.03 mg/mL, 90 min): 37.1 ± 0.3% | inhibition ([8]; 0.03 mg/mL, 120 min): 45.9 ± 0.6%

C=CCNC(=[Se])NC(=O)/C=C/c1cccs1 [Compound 4.II, (E)-N-(allylcarbamoselenoyl)-3-(thiophen-2-yl)acrylamide]
activity at 10 µM [1]: 79.2 ± 9.2% | activity at 50 µM [1]: 44.2 ± 6.2% | activity at 10 µM [2]: 81.1 ± 6.7% | activity at 50 µM [2]: 17.6 ± 6.6% | activity at 10 µM [6]: 100 ± 7.1% | activity at 50 µM [6]: 32.9 ± 5% | melting point: 104 to 105 °C | activity at 10 µM [5]: 67.2 ± 7.1% | activity at 50 µM [5]: 13.8 ± 1.2% | inhibition ([8]; 0.003 mg/mL, 0 min): 0% | inhibition ([8]; 0.003 mg/mL, 5 min): 0% | inhibition ([8]; 0.003 mg/mL, 15 min): 0% | inhibition ([8]; 0.003 mg/mL, 30 min): 0.5 ± 2.5% | inhibition ([8]; 0.003 mg/mL, 60 min): 1.7 ± 2.4% | inhibition ([8]; 0.003 mg/mL, 90 min): 2.5 ± 2.4% | inhibition ([8]; 0.003 mg/mL, 120 min): 3.1 ± 2.3% | inhibition ([8]; 0.03 mg/mL, 0 min): 0.9 ± 2.8% | inhibition ([8]; 0.03 mg/mL, 5 min): 6.1 ± 1.7% | inhibition ([8]; 0.03 mg/mL, 15 min): 9.9 ± 1.5% | inhibition ([8]; 0.03 mg/mL, 30 min): 15.5 ± 1.4% | inhibition ([8]; 0.03 mg/mL, 60 min): 25.6 ± 1.3% | inhibition ([8]; 0.03 mg/mL, 90 min): 35 ± 0.6% | inhibition ([8]; 0.03 mg/mL, 120 min): 44.3 ± 0.6%

CCCNC(=[Se])NC(=O)/C=C/c1ccccc1 [Compound 6.I, N-(propylcarbamoselenoyl)cinnamamide]
activity at 10 µM [1]: 84.6 ± 5.9% | activity at 50 µM [1]: 36.2 ± 5.7% | activity at 10 µM [2]: 88.4 ± 16.3% | activity at 50 µM [2]: 23.5 ± 12.9% | activity at 10 µM [6]: 60.4 ± 9.7% | activity at 50 µM [6]: 25.1 ± 5% | melting point: 125 to 126 °C | activity at 10 µM [5]: 19.5 ± 2% | activity at 50 µM [5]: 12.6 ± 1% | inhibition ([8]; 0.003 mg/mL, 0 min): 1.5 ± 0.5% | inhibition ([8]; 0.003 mg/mL, 5 min): 2 ± 0.8% | inhibition ([8]; 0.003 mg/mL, 15 min): 2.5 ± 0.8% | inhibition ([8]; 0.003 mg/mL, 30 min): 3.1 ± 0.6% | inhibition ([8]; 0.003 mg/mL, 60 min): 4.4 ± 0.6% | inhibition ([8]; 0.003 mg/mL, 90 min): 5.6 ± 0.7% | inhibition ([8]; 0.003 mg/mL, 120 min): 6.6 ± 0.8% | inhibition ([8]; 0.03 mg/mL, 0 min): 2.3 ± 1% | inhibition ([8]; 0.03 mg/mL, 5 min): 10.1 ± 1.1% | inhibition ([8]; 0.03 mg/mL, 15 min): 15.4 ± 1.3% | inhibition ([8]; 0.03 mg/mL, 30 min): 21.8 ± 1.1% | inhibition ([8]; 0.03 mg/mL, 60 min): 35.1 ± 1.2% | inhibition ([8]; 0.03 mg/mL, 90 min): 50.2 ± 0.8% | inhibition ([8]; 0.03 mg/mL, 120 min): 66.4 ± 0.2%

C=CCNC(=[Se])NC(=O)/C=C/c1ccc2c(c1)OCO2 [Compound 9.II, (E)-N-(allylcarbamoselenoyl)-3-(benzo[d][1,3]dioxol-5-yl)acrylamide]
cell growth % ([1]; HTB-54, 10 µM, 48 h, MTT): 82.8% | activity at 10 µM [1]: 82.8 ± 2.8% | activity at 50 µM [1]: 60 ± 4.5% | activity at 10 µM [2]: 83.8 ± 7.9% | activity at 50 µM [2]: 71.3 ± 5.3% | activity at 10 µM [6]: 113 ± 7.8% | activity at 50 µM [6]: 103 ± 7.1% | melting point: 187 to 188 °C | activity at 10 µM [5]: 110 ± 9% | activity at 50 µM [5]: 69.6 ± 6.1% | inhibition ([8]; 0.003 mg/mL, 0 min): 0.1 ± 2.9% | inhibition ([8]; 0.003 mg/mL, 5 min): 0.3 ± 2.7% | inhibition ([8]; 0.003 mg/mL, 15 min): 0.8 ± 2.5% | inhibition ([8]; 0.003 mg/mL, 30 min): 1.5 ± 2.4% | inhibition ([8]; 0.003 mg/mL, 60 min): 2.3 ± 2.3% | inhibition ([8]; 0.003 mg/mL, 90 min): 3 ± 2.3% | inhibition ([8]; 0.003 mg/mL, 120 min): 3.5 ± 2.3% | inhibition ([8]; 0.03 mg/mL, 0 min): 1.9 ± 1.9% | inhibition ([8]; 0.03 mg/mL, 5 min): 6.1 ± 1.7% | inhibition ([8]; 0.03 mg/mL, 15 min): 10.1 ± 1.2% | inhibition ([8]; 0.03 mg/mL, 30 min): 14.7 ± 1.1% | inhibition ([8]; 0.03 mg/mL, 60 min): 22.3 ± 1.2% | inhibition ([8]; 0.03 mg/mL, 90 min): 29 ± 1.2% | inhibition ([8]; 0.03 mg/mL, 120 min): 35.2 ± 1.3%
